Measurements as given in patent publication US5747503A, “Selective inhibitors of biogenic amine transporters” (priority 1996, dated 1998).
“Also recorded” adds a separate entry of the source. Read-outs that look alike come from different tables or passages of the source.

How the values were obtained:
DA transporter = target: T1, DA transporter (Rattus norvegicus, UniProt P23977); assay: [^3 H]CFT binding to DA transporter
T1 construct: Striata were dissected using glass manipulators; from tissue; host or cells: striatum of male Sprague-Dawley rats, membranes
T1 sequence (P23977 whole entry): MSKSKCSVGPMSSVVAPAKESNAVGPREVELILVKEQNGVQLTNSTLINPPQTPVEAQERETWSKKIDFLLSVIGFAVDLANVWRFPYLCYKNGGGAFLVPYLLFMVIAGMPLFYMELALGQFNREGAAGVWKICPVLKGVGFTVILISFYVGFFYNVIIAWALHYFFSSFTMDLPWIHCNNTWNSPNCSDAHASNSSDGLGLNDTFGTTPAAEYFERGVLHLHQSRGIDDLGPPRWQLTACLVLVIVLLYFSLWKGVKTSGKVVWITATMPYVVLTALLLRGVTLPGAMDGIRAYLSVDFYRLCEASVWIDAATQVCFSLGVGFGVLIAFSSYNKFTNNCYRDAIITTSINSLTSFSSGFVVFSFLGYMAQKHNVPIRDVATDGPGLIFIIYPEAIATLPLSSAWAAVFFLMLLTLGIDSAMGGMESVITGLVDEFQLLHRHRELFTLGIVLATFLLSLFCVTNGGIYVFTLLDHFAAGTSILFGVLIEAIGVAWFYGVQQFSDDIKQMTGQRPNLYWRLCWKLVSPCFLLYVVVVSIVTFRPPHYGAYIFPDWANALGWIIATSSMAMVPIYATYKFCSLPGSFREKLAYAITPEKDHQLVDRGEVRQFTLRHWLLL
Experimental: For [^3 H]J2B-carbomethoxy-3B-(4-fluorophenyl)-tropane (CFT, WIN35,428) binding assays, male Sprague-Dawley rats (200 to 300 gm) were anesthetized with C02 gas, and decapitated. Striata were dissected using glass manipulators, placed in small plastic containers, and then allowed to freeze by placing the container in dry ice.
Striata collected in this way were stored at […]. On the day of the assay, each striatum was placed in ice-cold binding buffer (BB: 55.2 mM sodium phosphate buffer, pH 7.4, 5 ml per caudate), and homogenized while still frozen with a Polytron. The homogenate was centrifuged for 10 min at 30,000×g, and the pellet was resuspended in an equal volume of BB. The homogenate was recentrifuged, and the pellet was resuspended in an equal volume of BB. An aliquot was saved for determination of protein (0.5 ml), and the remaining homogenate was brought up to a final volume of 22 ml/striatum using ice-cold BB. […] Aliquots of membranes were then used in the radioligand binding assays.
(§1) The [^3 H]nisoxetine assay for the norepinephrine transporter (NE) was carried out as described (Rothman, et al. (1993), supra; Tejani-Butt, S. M., et al. Eur. J. Pharmacol. 191:239-243 (1990)). DA transporters were labeled with [^3 H)CFT with minor modifications of published protocols (Madras, B. K., et al. Mol. Pharmacol. 36: 518-524 (1989)). Briefly, 12×75 mm polystyrene test tubes were prefilled with 100 μl of drug, 100 μl of radiolabeled (1 nM final concentration), 50 μl of buffer. Drugs were dissolved in BB containing 1 mg/ml bovine serum albumin (BB/BSA). Radioligands were made to a final concentration in a protease inhibitor cocktail containing 1 mg/ml BSA {BB containing chymostatin (25 μg/ml), leupeptin (25 μg/ml), EDTA (100 μM), and EGTA (100 μM)}. The assay was initiated by the addition of 750 μl of membranes, prepared as described above. Brandel cell harvesters were used to filter the samples over Whatman GF/B filters, which were presoaked in wash buffer (ice-cold 10 mM TRIS-HCL, pH 7.4 containing 150 mM NaCl) containing 2% polyethylenimine. In this procedure, samples were filtered and then washed with two 4 ml aliquots of ice-cold wash buffer. Nonspecific binding was defined using 10 μM (final concentration) GBR12909. All subsequent steps were identical to those described above.
(§2) Inhibition curves were fit to the two parameter logistic equation for the best-fit estimates of the IC50 using nonlinear least squares curve fitting methods as previously described (Rothman et al. (1993), supra); Jones, S. M. and Rogawski, M. A. Mol. Neuropharmacol. 2: 303-310 (1992)).
(§3) Synaptosomal uptake and ligand binding assays were conducted as described
(§4) Preliminary experiments were conducted to determine the doserange
(§5) The data of two experiments were
(§6) pooled, and fit to the two parameter logistic equation for the bestfit

NMDA receptor = assay: NMDA-induced current in cultured hippocampal neurons, whole-cell recording; assay type: cell-based, rat; settings: for IC50: Table 2
Experimental: Whole-cell recordings of NMDA-induced currents in cultured rat hippocampal neurons were carried out as described previously (Subramaniam, S., et al. Neurosci. Lett. 147: 213-216 (1992)). Hippocampal neurons grown in primary culture from 19-day-old Sprague-Dawley rat embryos were used 7-14 days after plating. The extracellular recording solution consisted of (in mM): 140 NaCl, 5 KCl, 0.1 CaCl2, and 10 HEPES (osmolality, 315-325 mOsm; pH, 7.4). Tetrodotoxin (1 μM) and strychnine (1 μM) were added to block Na+channel currents and glycine-activated Cl^- currents, respectively. Patch pipettes (2-5 M.OMEGA.) were prepared from filament-containing thin wall glass capillary tubes and filled with an intracellular solution that consisted of (in mM): 145 CsCl, 2 MgCl2, 5 HEPES, 0.1 CaCl2, and 1 EGTA (osmolality, 310 mOsm; pH, 7.4). Drugs were dissolved in recording solution and applied via a rapid gravity-fed perfusion system. Flow of the drug solutions was regulated by a microvalve operated by a programmable controller.
as §2

NE transporter = target: T2, NE transporter (Rattus norvegicus, UniProt Q63380); assay: [^3 H]Nisoxetine binding to NE transporter
T2 construct: from tissue; host or cells: brain membranes prepared by a cited method
T2 sequence (Q63380 1-617): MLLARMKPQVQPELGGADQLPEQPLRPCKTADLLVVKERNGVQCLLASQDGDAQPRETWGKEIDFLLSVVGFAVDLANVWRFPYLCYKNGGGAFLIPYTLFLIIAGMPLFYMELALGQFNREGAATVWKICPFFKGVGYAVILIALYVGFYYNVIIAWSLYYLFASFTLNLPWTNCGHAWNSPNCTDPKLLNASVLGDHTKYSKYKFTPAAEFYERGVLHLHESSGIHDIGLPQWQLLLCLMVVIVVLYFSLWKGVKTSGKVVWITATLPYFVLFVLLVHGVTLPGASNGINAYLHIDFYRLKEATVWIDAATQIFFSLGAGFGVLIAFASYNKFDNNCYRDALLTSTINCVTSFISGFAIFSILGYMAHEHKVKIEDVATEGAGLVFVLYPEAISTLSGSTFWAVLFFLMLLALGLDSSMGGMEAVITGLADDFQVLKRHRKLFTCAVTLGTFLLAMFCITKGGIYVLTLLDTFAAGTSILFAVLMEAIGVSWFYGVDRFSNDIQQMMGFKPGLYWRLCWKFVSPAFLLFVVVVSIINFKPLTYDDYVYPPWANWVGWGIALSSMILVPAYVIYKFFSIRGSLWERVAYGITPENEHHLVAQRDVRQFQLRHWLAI
Experimental: Membranes for the [^3 H]nisoxetine assay were prepared as described (Rothman, R. B., et al. Synapse 14: 34-39 (1993)).
as §1, §2, §3, §4, §5, §6

[1] = system: extracellular dopamine in the nucleus accumbens; settings: literature; cited from earlier work
[2] = Table 2, nM ± SD, rat striatum, read-out: [^3 H]CFT Binding IC50
[3] = Table 2, nM ±, read-out: [^3 H]Nisoxetine Binding IC50

SMILES	[^3 H]CFT binding inhibition in words (DA transporter)	IC50 (DA transporter; [2])	inhibition of NMDA-induced current responses in words (NMDA receptor)	IC50 (NMDA receptor)	[^3 H]nisoxetine binding / NE transporter affinity in words (NE transporter)	IC50 (NE transporter; [3])	effect on extracellular DA levels [1]	IC50 (DA transporter)	IC50 (NE transporter)
CN1[C@H](Cc2ccccc2)C[C@H]2Cc3ccccc3[C@H]21 (relative stereo) [RTI-4793-14, (2RS, 3aSR, 8aRS)-1,2,3a,8,8a-Hexahydro-2-benzyl-1-methyl-indeno[1,2-b]pyrrole]	moderate potency	850 ± 101 nM	low potency; also recorded: very low potency inhibitor	768 µM	moderate potency	609 ± 48 nM	–	–	–
C[C@]12N[C@H](Cc3ccccc31)c1ccccc12 [(+)-MK801]	negligible affinity	> 15000 nM	–	–	negligible affinity	6580 ± 860 nM	–	–	–
CNC1CC(c2ccc(Cl)c(Cl)c2)c2ccccc21 (stereo not shown) [Indatraline]	potently inhibited; also recorded: potent inhibitor	–	very low potency	95 µM	–	–	increase extracellular DA levels	–	–
c1ccc(C2(N3CCCCC3)CCCCC2)cc1 [PCP, phencyclidine]	lower affinity	–	–	–	very low affinity	–	increase extracellular DA levels	> 1500 nM	16630 ± 98 nM
